The values below come from patent US20060276440A1, “Treatment of inflammatory disorders” (priority 2005, published 2006).

Entries after “also recorded” stand apart in the source; their conditions may differ.

What all share (type): cell-based, human
Experiment [1] deals with OSM signaling. Briefly: […] 4A1 cell line (A549) OSM-stimulated luciferase reporter assay. The conditions noted are these: Homo sapiens, A549; 4A1 cell line; primary screen (Table 1); read-out: IC50, inhibition of OSM-stimulated (luciferase) reporter activity. How it is done:
Cell line 4A1 was established in A549 cells (a human lung cancer cell line) using BV32, a vector that carries both the luciferase and GFP reporters. Assay development was performed to optimize the conditions of the OSM-response in the 4A1 […]® line.
Reporter activities of Sentinel® clones were measured using the Steady-Glo® Luciferase assay system (Promega, Madison, Wis.), according to the manufacturer's instructions, and were normalized to cell numbers based on nucleic acid quantification (CyQuant® cell proliferations assay, Molecular Probes/Invitrogen, Carlsbad, Calif.). In order to identify potential anti-inflammatory compounds, the OSM-responding Sentinel® clone 4A1 was used for a library screen of approximately 1800 compounds.
(In general: A reporter such as luciferase makes a cellular process visible.)

Experiment [2] has as its system MMP-13. Kind of experiment: IL-1/OSM-stimulated pro-MMP-13 production in SW-1353 cells (ELISA). The following applies: Homo sapiens, SW1353; SW-1353; IL-1/OSM-stimulated; secondary screen (Example 2); read-out: IC50, inhibition of MMP-13 (pro-MMP-13) production. From the text: To test the compounds identified in the preliminary reporter (luciferase) activity […]® line 4A1 screen for inhibition of OSM signaling in a more physiologically relevant environment, a human cell line involved in an inflammatory disease was adapted. The human cartilage cell line SW-1353 was selected.
In the human cartilage cell line SW-1353, while IL-1 is believed to activate expression of collagenases to a small degree and OSM is believed to have no effect on collagenase expression, a combination of IL-1 and OSM is believed to lead to a synergistic activation of collagenases to much higher levels (S. Cowell et al., Biochem J 331 (Pt 2), 453 (Apr. 15, 1998). Regulation of MMP-13 in SW-1353 cells is, therefore, believed to provide a biomarker which can be used to monitor IL-1/OSM-mediated signal transduction events in secondary assays.
(§1) The same supernatants of culture media used in the primary screen were assayed for IL-1/OSM-stimulated pro-MMP-13 production and MMP-2 production by enzyme-linked immunosorbent assay (ELISA).
(§2) For matrix metalloproteinase (MMP) measures, SW1353 cells were grown to confluence in 24 well plates, washed in DMEM (with Ham's F12) and placed in 500 ul of serum free DMEM/F-12 with 0.2% lactalbumin hydrosylate with and without OsM/IL-1. After 24 hrs, supernatants were collected and the amounts of proMMP13, totalMMP2, and proMMP1 were measured using Quantikine® ELISA kit for human MMPs (R & D systems, Minneapolis, Minn.). All MMP measures were normalized to viable cell numbers based on a tetrazolium (MTS) colorimetric measure (Promega, Madison, Wis.).
In general terms: In an ELISA, binding on a coated surface is turned into a signal by an enzyme label.

The test system of experiment [3] is MMP-2. Kind of experiment: MMP-2 production in SW1353 cells (ELISA, control). The following applies: SW-1353; FIG. 5. As to the method:
MMP-2 production can be used as control for the potential side-effects of compounds. This is because MMP-2 levels are not believed to change in response to IL-1/OSM.
as §1, §2
(§3) Multiple control assays were performed to investigate the selectivity of CA4 action. Matrix metalloproteinase-2 (MMP-2) production in SW1353 cells was tested. Mutation of MMP-2 causes a multicentric osteolysis and arthritis syndrome (Martignetti et al., Nat Genet 28, 261-265 (2001) the entire contents of which are incorporated herein by reference), and theoretically its expression should not be affected in treating RA. CA4 at approximately 110 nM had no effect on production of MMP-2 (FIG. 12E). An A549 Sentinel line that responded to TGF-β was then tested.

For experiment [4], the system named is TGF-β. Kind of experiment: A549 Sentinel line TGF-β-stimulated reporter activity. The following applies: inhibitor of TGF-β receptor, control. As to the method: as §3

A word on the IC50: it is the concentration needed to halve the response being measured.

Consider `CC(C)C1=CC2=CCC3[C@](C)(C(=O)O)CCC[C@@]3(C)[C@@H]2CC1` (stereo in doubt) [Abietic acid (2), abietic acid], for which the IC50 in experiment [1] was determined as 12 nM; in experiment [2] it was 6 nM. For the same compound, the “inhibitory effect on MMP-13 expression compared to MMP-2 expression” value in experiment [3] is listed as “greater inhibitory effects on MMP-13 expression compared to MMP-2 expression; also recorded: preferentially inhibit MMP-13 expression compared to MMP-2 expression”.
Turning to `C=C(C)[C@H]1CC[C@@]2(C(=O)O)CC[C@@]3(C)[C@@H](CC[C@H]4[C@]5(C)CC[C@@H](O)C(C)(C)[C@H]5CC[C@@]43C)[C@H]12` (stereo in doubt) [Betulinic acid (9), betulinic acid], the IC50 in experiment [1] stood at 3300 nM; in experiment [2] it was 600 nM. Further, the “inhibitory effect on MMP-13 expression compared to MMP-2 expression” value in experiment [3] was “greater inhibitory effects on MMP-13 expression compared to MMP-2 expression; also recorded: preferentially inhibit MMP-13 expression compared to MMP-2 expression”.
For `CCc1oc2ccccc2c1C(=O)c1cc(Br)c(O)c(Br)c1` [Benzobromarone (8), (3,5-dibromo-4-hydroxyphenyl)(2-ethylbenzofuran-3-yl)methanone], the 50% inhibitory concentration (IC50) is 2200 nM in experiment [1] and 400 nM in experiment [2]. The “inhibitory effect on MMP-13 expression compared to MMP-2 expression” value in experiment [3] is recorded as “greater inhibitory effects on MMP-13 expression compared to MMP-2 expression; also recorded: preferentially inhibit MMP-13 expression compared to MMP-2 expression”.
On to `Cc1ccc(C(=O)Cn2c3c(sc2=N)CCCC3)cc1` [Pifithrine-alpha (12), 2-(2-imino-4,5,6,7-tetrahydrobenzothiazol-3-yl)-1-p-tolylethanone], for which the IC50 in experiment [2] worked out at 32000 nM. The “inhibitory effect on MMP-13 expression compared to MMP-2 expression” value in experiment [3] was “greater inhibitory effects on MMP-13 expression compared to MMP-2 expression; also recorded: preferentially inhibit MMP-13 expression compared to MMP-2 expression”.
In the case of `NC(=O)c1ccc(-c2nc(-c3ccc4c(c3)OCO4)c(-c3ccccn3)[nH]2)cc1` [SB431542, reference compound], the “effect on TGF-β-induced reporter activity” value in experiment [4] is given as “able to inhibit”.
